Measured values taken from ChEMBL document CHEMBL4043168, “The design and SAR of a novel series of 2-aminopyridine based LRRK2 inhibitors” (Bioorg Med Chem Lett, 2017).

Assays:
[1] = target: Mitogen-activated protein kinase kinase kinase 4 (Homo sapiens) (UniProt Q9Y6R4); test: Inhibition of MAP3K4 conserved Lys2 (DIKGANIFLTSSGLIK) in human PBMC at 0.1 uM
[2] = target: T1, Tyrosine-protein kinase JAK3 (Homo sapiens) (UniProt P52333); test: Inhibition of JAK3 domain2 activation Loop (IADFGLAKLLPLDKDYYVVR) in human PBMC at 1 uM
T1 sequence (whole entry): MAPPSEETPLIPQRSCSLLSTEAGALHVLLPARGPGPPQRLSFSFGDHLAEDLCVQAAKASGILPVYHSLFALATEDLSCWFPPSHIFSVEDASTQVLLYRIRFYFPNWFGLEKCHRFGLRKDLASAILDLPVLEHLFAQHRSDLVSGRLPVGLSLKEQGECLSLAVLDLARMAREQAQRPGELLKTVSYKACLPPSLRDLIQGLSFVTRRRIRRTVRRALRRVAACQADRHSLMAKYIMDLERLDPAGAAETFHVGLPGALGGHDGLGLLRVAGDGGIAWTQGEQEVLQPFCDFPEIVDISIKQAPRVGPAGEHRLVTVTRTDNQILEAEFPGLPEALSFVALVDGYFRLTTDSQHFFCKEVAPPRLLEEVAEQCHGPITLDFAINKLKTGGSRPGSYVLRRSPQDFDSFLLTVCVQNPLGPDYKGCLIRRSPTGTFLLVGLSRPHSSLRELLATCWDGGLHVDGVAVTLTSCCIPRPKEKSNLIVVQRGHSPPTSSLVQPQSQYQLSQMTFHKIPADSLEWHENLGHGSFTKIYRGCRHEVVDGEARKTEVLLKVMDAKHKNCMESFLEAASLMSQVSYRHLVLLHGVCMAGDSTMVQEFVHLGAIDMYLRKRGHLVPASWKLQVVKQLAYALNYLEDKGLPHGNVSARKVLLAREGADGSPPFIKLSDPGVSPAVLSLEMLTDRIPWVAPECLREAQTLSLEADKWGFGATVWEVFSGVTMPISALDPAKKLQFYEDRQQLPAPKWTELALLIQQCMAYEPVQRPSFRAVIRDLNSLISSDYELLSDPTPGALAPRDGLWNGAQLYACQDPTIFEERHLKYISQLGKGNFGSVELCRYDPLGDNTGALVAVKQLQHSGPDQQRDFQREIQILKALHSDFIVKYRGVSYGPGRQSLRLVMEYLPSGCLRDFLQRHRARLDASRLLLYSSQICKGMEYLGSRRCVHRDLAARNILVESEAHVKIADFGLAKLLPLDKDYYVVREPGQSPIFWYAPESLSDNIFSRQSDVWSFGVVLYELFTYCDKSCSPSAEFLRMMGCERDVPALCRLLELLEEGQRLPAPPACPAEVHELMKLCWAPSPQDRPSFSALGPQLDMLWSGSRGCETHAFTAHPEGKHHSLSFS

[3] = target: T2, Mitogen-activated protein kinase kinase kinase 5 (Homo sapiens) (UniProt Q99683); test: Inhibition of MAP3K5 conserved Lys1 (IAIKEIPER) in human PBMC at 1 uM
T2 sequence (whole entry): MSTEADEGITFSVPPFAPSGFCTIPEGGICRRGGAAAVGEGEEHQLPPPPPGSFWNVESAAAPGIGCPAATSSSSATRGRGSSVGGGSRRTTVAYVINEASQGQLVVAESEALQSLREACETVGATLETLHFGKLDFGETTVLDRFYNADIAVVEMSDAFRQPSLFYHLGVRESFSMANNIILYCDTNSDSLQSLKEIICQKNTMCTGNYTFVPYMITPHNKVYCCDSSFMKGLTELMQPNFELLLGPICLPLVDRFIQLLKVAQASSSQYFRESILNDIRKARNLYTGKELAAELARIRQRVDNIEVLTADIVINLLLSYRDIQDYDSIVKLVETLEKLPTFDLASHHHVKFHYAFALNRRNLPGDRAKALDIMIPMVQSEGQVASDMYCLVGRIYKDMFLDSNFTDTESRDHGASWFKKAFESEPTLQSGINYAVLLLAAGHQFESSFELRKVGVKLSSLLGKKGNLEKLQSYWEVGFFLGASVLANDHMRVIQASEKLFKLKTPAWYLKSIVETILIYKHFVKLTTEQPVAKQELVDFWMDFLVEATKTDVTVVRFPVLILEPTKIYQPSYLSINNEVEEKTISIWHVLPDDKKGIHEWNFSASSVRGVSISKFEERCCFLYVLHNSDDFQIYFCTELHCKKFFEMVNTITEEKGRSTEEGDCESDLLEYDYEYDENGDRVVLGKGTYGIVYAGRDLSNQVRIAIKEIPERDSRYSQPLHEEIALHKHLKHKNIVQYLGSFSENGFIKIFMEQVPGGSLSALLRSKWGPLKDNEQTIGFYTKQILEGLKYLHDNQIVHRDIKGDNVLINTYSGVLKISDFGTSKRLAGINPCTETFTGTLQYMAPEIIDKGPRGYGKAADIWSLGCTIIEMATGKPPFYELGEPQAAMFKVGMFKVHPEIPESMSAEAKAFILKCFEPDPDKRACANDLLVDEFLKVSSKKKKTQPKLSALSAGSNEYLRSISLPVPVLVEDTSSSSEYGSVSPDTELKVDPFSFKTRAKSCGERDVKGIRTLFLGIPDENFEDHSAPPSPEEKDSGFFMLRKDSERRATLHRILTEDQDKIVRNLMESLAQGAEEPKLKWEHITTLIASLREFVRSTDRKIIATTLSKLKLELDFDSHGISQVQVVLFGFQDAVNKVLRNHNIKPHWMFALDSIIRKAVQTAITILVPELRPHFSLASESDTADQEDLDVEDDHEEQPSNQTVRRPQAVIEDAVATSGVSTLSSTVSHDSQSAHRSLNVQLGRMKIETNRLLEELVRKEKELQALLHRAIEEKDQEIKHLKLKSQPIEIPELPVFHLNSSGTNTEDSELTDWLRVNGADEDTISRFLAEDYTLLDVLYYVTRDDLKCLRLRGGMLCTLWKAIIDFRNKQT

Sequence of Mitogen-activated protein kinase kinase kinase 4 (Homo sapiens) (Q9Y6R4 whole entry, the tested form may be a part): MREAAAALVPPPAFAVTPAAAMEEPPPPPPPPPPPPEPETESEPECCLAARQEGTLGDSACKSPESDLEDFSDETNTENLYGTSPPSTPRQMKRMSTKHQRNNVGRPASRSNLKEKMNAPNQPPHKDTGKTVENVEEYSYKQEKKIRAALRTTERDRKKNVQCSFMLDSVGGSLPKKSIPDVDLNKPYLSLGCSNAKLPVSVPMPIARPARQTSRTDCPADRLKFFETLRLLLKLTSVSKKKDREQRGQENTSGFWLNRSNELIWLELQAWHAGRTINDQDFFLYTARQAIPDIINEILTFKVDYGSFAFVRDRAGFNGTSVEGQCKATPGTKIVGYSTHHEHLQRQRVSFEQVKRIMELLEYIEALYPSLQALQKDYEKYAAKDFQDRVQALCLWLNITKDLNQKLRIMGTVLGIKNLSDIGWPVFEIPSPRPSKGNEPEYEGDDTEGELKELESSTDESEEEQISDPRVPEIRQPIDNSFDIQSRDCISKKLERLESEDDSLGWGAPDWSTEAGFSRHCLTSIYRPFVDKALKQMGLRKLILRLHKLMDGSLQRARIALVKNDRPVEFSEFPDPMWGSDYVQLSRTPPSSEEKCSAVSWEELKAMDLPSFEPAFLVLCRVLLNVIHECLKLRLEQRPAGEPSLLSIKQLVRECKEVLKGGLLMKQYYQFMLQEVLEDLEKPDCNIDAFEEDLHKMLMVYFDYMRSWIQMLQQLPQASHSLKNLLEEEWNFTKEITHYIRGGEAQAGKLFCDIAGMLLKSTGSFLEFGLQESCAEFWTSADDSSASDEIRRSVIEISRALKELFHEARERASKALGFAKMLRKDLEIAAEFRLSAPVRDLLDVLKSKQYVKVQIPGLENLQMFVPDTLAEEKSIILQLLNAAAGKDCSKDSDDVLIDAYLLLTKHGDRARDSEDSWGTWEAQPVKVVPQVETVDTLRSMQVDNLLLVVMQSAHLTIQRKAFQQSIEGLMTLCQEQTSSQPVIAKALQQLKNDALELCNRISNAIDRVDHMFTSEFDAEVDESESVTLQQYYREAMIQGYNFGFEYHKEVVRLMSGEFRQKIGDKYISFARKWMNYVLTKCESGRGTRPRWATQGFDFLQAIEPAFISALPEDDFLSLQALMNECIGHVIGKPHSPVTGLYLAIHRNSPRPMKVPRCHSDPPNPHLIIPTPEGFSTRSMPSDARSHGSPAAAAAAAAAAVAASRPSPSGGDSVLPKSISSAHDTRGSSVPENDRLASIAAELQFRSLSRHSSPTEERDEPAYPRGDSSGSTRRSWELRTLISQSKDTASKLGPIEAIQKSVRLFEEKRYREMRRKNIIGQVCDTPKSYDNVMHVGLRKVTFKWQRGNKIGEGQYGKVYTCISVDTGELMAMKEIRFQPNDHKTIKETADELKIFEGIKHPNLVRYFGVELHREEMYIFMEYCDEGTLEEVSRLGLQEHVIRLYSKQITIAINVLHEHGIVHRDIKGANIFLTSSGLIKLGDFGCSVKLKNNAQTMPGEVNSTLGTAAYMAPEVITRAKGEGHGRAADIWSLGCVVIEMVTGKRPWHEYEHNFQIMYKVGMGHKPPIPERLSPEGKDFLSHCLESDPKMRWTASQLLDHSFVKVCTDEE

CC(C)n1cc(-c2cc(-c3ccc(CN4CCOCC4)cc3)cnc2N)nn1
inhibition [1]: 3.8%
inhibition [2]: 7.8%
inhibition [3]: -3.3%
